The values below come from ChEMBL document CHEMBL1201862, “PubChem BioAssay data set” (2004).

The source made the active and inactive calls.

In assay [1] the target is C-X-C chemokine receptor type 4 (Homo sapiens, UniProt P61073). Kind of assay: SAR analysis of small molecule antagonists of the CXCR6 receptor using a CXCR4 receptor luminescent beta-arrestin counterscreen. The class given is functional.
The target of assay [2] is T1, C-C chemokine receptor type 6 (Homo sapiens, UniProt P51684).
T1 sequence (P51684 whole entry): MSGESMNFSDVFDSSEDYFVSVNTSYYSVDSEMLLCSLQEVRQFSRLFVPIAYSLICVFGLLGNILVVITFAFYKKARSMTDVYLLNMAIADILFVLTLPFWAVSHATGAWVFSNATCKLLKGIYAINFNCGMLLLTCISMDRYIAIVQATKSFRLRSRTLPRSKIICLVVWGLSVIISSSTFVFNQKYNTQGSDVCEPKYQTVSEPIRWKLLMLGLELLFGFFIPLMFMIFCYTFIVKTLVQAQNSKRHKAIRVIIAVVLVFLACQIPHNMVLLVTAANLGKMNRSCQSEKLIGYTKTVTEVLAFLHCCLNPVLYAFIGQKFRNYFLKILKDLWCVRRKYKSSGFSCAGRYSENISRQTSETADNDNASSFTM
The assay can be described thus: SAR analysis of small molecule antagonists of the CXCR6 receptor using a CCR6 receptor luminescent beta-arrestin counterscreen. The class given is functional. On the technique in general: Counterscreens check selectivity or assay interference.

Assay [3] in a line: T. cruzi growth inhibition in host cells, dose response, cell-based, plate reader, dry powder, set 2 (AID 652275). The class given is functional.
Assay [4] is described as follows: inhibitors of non-replicating M. tuberculosis, dose response, luciferase, dry powder (AID 651619). To be noted: Mycobacterium tuberculosis. The assay is classed as functional.
The nature of assay [5]: inhibitors of non-replicating M. tuberculosis, dose response, luciferase, dry powder (AID 651620). The assay is classed as functional. To be noted: Mycobacterium tuberculosis.
For assay [6], the target named is T2, Carboxy-terminal domain RNA polymerase II polypeptide A small phosphatase 1 (Homo sapiens, UniProt Q9GZU7).
T2 sequence (Q9GZU7 whole entry): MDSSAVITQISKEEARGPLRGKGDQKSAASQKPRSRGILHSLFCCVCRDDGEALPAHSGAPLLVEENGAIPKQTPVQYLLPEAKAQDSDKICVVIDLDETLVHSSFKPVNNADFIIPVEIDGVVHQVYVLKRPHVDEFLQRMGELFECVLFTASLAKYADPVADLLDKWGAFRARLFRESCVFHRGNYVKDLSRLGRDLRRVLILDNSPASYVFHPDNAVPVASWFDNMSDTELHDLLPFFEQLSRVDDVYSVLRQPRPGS
The assay can be described thus: CTDSP1 inhibitors, concentration-response, biochemical, absorbance readout, ultra-high-throughput screen actives (AID 540297). The class given is functional.

The target of assay [7] is T3, Low molecular weight phosphotyrosine protein phosphatase (Homo sapiens, UniProt P24666).
T3 sequence (P24666 whole entry): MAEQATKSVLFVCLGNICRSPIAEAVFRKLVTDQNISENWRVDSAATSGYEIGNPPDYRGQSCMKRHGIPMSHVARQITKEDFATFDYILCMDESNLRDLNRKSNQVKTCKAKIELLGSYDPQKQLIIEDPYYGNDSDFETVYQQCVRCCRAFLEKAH
The class given is functional. The settings on record: read-out: IC50_Mean.

Assay [8] deals with T3, Low molecular weight phosphotyrosine protein phosphatase. The class given is functional. To be noted: read-out: IC50_Mean. This is another data set of the same source.
Assay [9] concerns BHK-21. The assay can be described thus: viability loss in BHK-21 cells – cell-based, plate reader, cherry-pick samples, cytotoxicity control, dose response (AID 687030). The assay is classed as functional. The settings on record: Mesocricetus auratus.
The test system of assay [10] is A549. The assay can be described thus: viability loss in A549 cells – cell-based, plate reader, cherry-pick samples, cytotoxicity control, dose response (AID 687028). The assay is classed as functional. To be noted: Homo sapiens.
Assay [11] can be described thus: activation of miR-122 Renilla sensor silencing – cell-based, Huh7 psiCHECK-miR122, Renilla luciferase, cherry-picked, dose response (AID 651956).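 Further: huh7 hepatoma cells stably carrying a psiCHECK-2 miR-122 sensor plasmid; renilla luciferase signal reporting endogenous miR-122 activity after 48 h compound exposure.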 The assay is classed as functional.
The nature of assay [12]: general mammalian cell viability loss – inhibitor set, cherry-pick, set 2, cytotoxicity control for miR-122 modulator project, dose response (AID 720697). The class given is functional, cell-based.
Assay [13] can be described thus: general mammalian cell viability loss – activator set, cherry-pick, cytotoxicity control for miR-122 modulator project, dose response (AID 720690).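 Further: HEK293T human cells scored for general mammalian cytotoxicity.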 The assay is classed as functional, cell-based.
Assay [14] deals with Kappa-type opioid receptor (Homo sapiens, UniProt P41145). The assay can be described thus: Late-stage fluorescence-based cell-based dose response assay for antagonists of kappa opioid receptor 1 (OPRK1). The assay is classed as functional.
Kappa-type opioid receptor, sequence (P41145 whole entry): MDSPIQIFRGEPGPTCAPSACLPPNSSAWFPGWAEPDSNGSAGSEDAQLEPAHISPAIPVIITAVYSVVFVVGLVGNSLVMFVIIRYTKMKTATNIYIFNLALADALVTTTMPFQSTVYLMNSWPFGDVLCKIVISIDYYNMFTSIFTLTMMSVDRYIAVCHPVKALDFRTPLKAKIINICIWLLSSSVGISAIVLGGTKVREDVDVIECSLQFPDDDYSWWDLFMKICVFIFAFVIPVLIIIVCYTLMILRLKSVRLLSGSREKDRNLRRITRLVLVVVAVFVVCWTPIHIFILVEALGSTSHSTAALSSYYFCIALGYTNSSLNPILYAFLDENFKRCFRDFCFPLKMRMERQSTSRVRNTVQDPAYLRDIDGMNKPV
For assay [15], the target named is Mu-type opioid receptor (Homo sapiens, UniProt P35372). Kind of assay: Late-stage results from the probe development effort to identify antagonists of OPRK1: luminescence-based cell-based dose response OPRM1 counterscreen, Set 2. The class given is functional.
Mu-type opioid receptor, sequence (P35372 whole entry): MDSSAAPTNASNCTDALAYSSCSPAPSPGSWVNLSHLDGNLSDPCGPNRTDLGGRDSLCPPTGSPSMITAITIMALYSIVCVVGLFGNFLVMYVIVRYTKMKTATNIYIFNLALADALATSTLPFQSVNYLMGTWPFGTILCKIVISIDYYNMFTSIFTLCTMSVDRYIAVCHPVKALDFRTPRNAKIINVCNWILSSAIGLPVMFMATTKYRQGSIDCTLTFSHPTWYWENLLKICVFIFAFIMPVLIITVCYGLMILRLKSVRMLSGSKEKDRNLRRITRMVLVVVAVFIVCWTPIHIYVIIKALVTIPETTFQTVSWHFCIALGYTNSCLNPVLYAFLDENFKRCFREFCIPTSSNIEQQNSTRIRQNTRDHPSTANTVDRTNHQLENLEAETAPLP
For assay [16], the target named is Delta-type opioid receptor (Homo sapiens, UniProt P41143). The assay can be described thus: Late-stage results from the probe development effort to identify antagonists of OPRK1: fluorescence-based cell-based dose response OPRD1 counterscreen, Set 2. The assay is classed as functional.
Delta-type opioid receptor, sequence (P41143 whole entry): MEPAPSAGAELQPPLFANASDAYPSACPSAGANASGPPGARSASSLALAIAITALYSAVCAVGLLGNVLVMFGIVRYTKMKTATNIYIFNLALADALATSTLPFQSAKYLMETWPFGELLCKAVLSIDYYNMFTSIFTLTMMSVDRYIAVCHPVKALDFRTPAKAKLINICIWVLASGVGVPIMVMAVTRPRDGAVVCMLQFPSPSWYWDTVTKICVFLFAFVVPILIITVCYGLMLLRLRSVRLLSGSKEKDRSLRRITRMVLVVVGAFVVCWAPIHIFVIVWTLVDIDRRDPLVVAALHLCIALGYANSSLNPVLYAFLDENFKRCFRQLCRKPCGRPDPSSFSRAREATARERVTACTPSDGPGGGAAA
For assay [17], the target named is Sphingosine 1-phosphate receptor 1 (Homo sapiens, UniProt P21453). Kind of assay: Late-stage counterscreen for antagonists of kappa opioid receptor 1 (OPRK1): fluorescence-based cell-based dose response assay to identify antagonists of Sphingosine 1-Phosphate Receptor 1 (S1P1). The assay is classed as functional.
Sphingosine 1-phosphate receptor 1, sequence (P21453 whole entry): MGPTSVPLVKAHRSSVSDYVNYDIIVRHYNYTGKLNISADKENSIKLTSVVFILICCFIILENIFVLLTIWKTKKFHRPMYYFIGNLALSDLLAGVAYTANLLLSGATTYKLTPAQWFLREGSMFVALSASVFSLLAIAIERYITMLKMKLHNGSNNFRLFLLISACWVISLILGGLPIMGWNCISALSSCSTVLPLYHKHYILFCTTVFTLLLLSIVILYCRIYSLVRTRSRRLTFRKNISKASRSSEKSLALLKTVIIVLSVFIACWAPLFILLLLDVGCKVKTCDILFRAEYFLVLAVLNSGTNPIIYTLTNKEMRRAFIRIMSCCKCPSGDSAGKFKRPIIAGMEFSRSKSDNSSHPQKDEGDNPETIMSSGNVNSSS
A short description of assay [18]: viability loss in HEK293T cells – cell-based, cherry-picks, cytotoxicity control for HIV Vif inhibitor project, dose response (AID 652208). The assay is classed as functional.
The target in assay [19] is Paired box protein Pax-8 (Homo sapiens, UniProt Q06710). The assay can be described thus: PAX8 transcriptional activity inhibition in RMG-I – RMG-I cells, luciferase, cherry-pick, dose response (AID 687027).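 Further: luciferase reporter driven by Pax8 target thyroperoxidase promoter measured by SteadyGlo luminescence.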 The assay is classed as functional, cell-based.
Paired box protein Pax-8, sequence (Q06710 whole entry): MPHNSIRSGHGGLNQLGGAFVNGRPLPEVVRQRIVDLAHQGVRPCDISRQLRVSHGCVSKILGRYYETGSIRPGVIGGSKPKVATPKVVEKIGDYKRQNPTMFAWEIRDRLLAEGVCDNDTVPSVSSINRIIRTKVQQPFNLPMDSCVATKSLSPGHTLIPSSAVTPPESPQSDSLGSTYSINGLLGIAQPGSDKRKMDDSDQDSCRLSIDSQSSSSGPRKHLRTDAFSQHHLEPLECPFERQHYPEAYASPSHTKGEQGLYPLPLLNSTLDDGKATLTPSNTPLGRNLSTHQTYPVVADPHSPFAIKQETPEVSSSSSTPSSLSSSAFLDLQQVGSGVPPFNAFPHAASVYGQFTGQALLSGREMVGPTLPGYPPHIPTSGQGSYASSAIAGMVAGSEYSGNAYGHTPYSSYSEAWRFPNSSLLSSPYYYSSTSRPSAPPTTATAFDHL
A short description of assay [20]: A549 cell cytotoxicity, dose response, cytotoxicity control, plate reader, cherry-pick, antagonist series (AID 743412). The assay is classed as functional, cell-based.
A short description of assay [21]: toxicity toward HepG2 liver cells – cell-based, plate reader, cherry-pick, antagonist series, cytotoxicity control, dose response (AID 743416). The assay is classed as functional.
The nature of assay [22]: blockers of bursicon-stimulated LGR2 cAMP reporter – cell-based, HEK293, CRE-luciferase reporter, cherry pick, set 2, dose response (AID 743343).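 Further: transfected cells were stimulated with diluted bursicon conditioned medium after compound addition.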 The class given is functional. (In general: In a reporter assay the amount or activity of a reporter protein is the signal.)
A short description of assay [23]: general cell-killing toxicity readout – plate reader, dry powder samples, cytotoxicity control for PAX8 inhibitor project, dose response (AID 743021). The class given is functional, cell-based.
Assay [24] is described as follows: blockade of melanocortin 4 receptor signaling – cell-based, plate reader, cherry pick, counter-screen for LGR2 antagonist project, dose response (AID 743444).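 Further: transfected HEK 293 cells stimulated with alpha-MSH peptide; potency of inhibitors of the alpha-MSH evoked signal.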 The assay is classed as functional.
Assay [25] is described as follows: viability loss in HEK293 cells – cell-based, plate reader, cherry-picked samples, cytotoxicity control, dose response (AID 743446). The assay is classed as functional.
Assay [26] has as its target fMet-Leu-Phe receptor (Homo sapiens, UniProt P21462). The assay can be described thus: formyl peptide receptor binders – dose response (AID 519). The class given is functional.
The target in assay [27] is Cytochrome P450 2C9 (Homo sapiens, UniProt P11712).
Cytochrome P450 2C9, sequence (P11712 whole entry): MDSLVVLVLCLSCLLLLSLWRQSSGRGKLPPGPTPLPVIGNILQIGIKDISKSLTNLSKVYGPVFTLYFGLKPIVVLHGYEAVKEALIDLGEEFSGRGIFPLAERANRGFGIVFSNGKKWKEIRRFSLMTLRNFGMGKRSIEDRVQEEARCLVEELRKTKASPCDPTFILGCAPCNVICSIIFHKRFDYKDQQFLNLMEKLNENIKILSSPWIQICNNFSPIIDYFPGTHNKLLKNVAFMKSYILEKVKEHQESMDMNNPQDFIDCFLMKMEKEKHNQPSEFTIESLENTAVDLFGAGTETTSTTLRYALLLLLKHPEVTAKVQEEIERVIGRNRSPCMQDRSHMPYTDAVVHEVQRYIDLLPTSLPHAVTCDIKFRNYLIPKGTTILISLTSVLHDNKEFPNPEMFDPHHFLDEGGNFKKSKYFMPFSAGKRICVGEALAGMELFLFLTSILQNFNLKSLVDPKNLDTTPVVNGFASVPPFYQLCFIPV

fMet-Leu-Phe receptor, sequence (P21462 whole entry): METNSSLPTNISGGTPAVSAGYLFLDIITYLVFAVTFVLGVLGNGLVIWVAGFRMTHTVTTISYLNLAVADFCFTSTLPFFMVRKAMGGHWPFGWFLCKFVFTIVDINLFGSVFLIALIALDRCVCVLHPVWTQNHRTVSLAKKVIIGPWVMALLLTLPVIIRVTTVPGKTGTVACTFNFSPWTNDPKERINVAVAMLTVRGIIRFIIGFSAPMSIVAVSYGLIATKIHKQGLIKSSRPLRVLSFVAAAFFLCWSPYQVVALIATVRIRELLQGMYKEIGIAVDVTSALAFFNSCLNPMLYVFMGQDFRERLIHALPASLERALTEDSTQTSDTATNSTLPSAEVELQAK
C-X-C chemokine receptor type 4, sequence (P61073 whole entry): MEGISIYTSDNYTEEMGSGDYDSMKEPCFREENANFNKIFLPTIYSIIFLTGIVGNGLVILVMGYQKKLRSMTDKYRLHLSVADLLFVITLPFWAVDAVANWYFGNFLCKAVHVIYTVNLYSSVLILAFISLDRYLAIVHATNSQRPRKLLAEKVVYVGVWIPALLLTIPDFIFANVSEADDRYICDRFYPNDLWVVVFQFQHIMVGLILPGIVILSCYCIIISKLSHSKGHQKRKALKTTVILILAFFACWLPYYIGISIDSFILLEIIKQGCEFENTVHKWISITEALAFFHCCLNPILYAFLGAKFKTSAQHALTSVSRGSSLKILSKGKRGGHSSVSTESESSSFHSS

For the compound `COc1ccc(CN2C3CCCC2CC(NC(=O)c2cc(OC)c(OC)c(OC)c2)C3)cc1` (configuration not stated), the figures for the IC50 in [1] and in assay [2] were 57.5 µM (inactive) and > 79 µM (inactive), respectively.
As a reminder, the AC50 is the concentration at which the activity in the assay is half-maximal. Consider `O=C(CN1CCOCC1)N1CCCCN2[C@@H](CO)[C@H](c3ccc(-c4ccccc4)cc3)[C@@H]2C1`, for which, in assay [3], the AC50 was 2.39 µM (active).
Usually IC90 stands for the concentration at which the effect reaches the 90% level. For the compound `Fc1ccc(-c2nnc(SCc3cn(Cc4ccccc4)nn3)o2)cc1`, the IC90 in assay [4] and in [5] was 1 µM (active) each time.
Consider `Cc1cc2oc(C(=O)NCCc3ccc(S(N)(=O)=O)cc3)c(C)c2cc1C`, for which the IC50 was > 80 µM (inactive) in assay [6], 29.9 µM (inactive) in [7] and 48.1 µM (inactive) in [8].
Regarding `COc1cc(NC(=O)c2nccn2C)cc(C(=O)Nc2cccc(C(F)(F)F)c2)c1`, the AC50 in [9] is 26.2 µM (active); in [10], 19.7 µM (active).
Turning to `C[C@H](CO)N1C[C@H](C)[C@H](CN(C)Cc2ccc(C(F)(F)F)cc2)OCCCC[C@H](C)Oc2ccc(NC(=O)CCCN(C)C)cc2C1=O`, the AC50 in assay [11] is 10.3 µM (active); in assay [12] it was 17.9 µM (active); in assay [13], 15.7 µM (active).
As to `COc1ccccc1C1CCN(Cc2ccc3c(c2)CCC(C)(C)O3)CC1`, the IC50 in assay [14] is 4.66 µM (active); in [15], 7.4 µM (active); in [16] it was > 50 µM (inactive); in [17], > 50 µM (inactive).
Regarding `COC(=O)N1C(=O)[C@](c2ccc(Cl)cc2)(C(C)C)N1C(=O)OC`, the AC50 in [18] was 18.7 µM (active).
Take `Nc1[nH]cnc2c(C3OC(CO)C(O)C3O)cnc1-2` (configuration not stated): the AC50 is < 260 nM (active) in assay [19]; < 50 nM (active) in [20]; 422 nM (active) in [21]; 407 nM (active) in assay [22]; 19.5 µM (active) in assay [23]; 539 nM (active) in [24]. The half-maximal activity concentration (AC50) in assay [25] is 832 nM (active).
For orientation: Ki means a measure of affinity in units of concentration, obtained from inhibition or displacement. With `Cc1ccc(C2C(C(=O)c3ccc(Cl)cc3)=C(O)C(=O)N2CC2CCCO2)o1` (configuration not stated), in assay [26], the Ki is 11.6 µM (active). For the same compound, the AC50 in [27] is 22.4 µM (inconclusive).
